row,Structure (SMILES),melting point
1,Cl.c1nc2cc3c(cc2[nH]1)C1CNCC3C1 (stereo not shown),> 250 °C
2,CC(C)Cn1cnc2cc3c(cc21)C1CNCC3C1.Cl (stereo not shown),147 to 150 °C
3,Cc1ccc2cc3c(cc2n1)C1CNCC3C1.Cl (stereo not shown),> 300 °C (dec.)
4,Cl.c1ccc(-n2cnc3cc4c(cc32)C2CNCC4C2)cc1 (stereo not shown),210 to 213 °C
5,Cc1nc2cc3c(cc2n1-c1ccccc1)C1CNCC3C1.Cl (stereo not shown),> 250 °C
6,Cl.O=[N+]([O-])c1ccc2c(c1)C1CNCC2C1 (stereo not shown),265 to 270 °C
7,Cl.Fc1cc2c(cc1F)C1CNCC2C1,301 to 303 °C
8,CC(C)c1nc2cc3c(cc2o1)C1CNCC3C1.Cl (stereo not shown),249 to 251 °C
9,CC(=O)Nc1ccc2c(c1)C1CNCC2C1.Cl (stereo not shown),225 to 230 °C
10,Cl.O=c1ccc2cc3c(cc2[nH]1)C1CNCC3C1 (stereo not shown),300 °C (dec.)
11,Cl.Clc1cc2c(cc1Cl)C1CNCC2C1,283 to 291 °C
12,CCc1cnc2cc3c(cc2c1)C1CNCC3C1.Cl (stereo not shown),288 to 291 °C (dec.)
13,CN1CC2CC(C1)c1cc3nccnc3cc12.Cl,> 250 °C
14,Cc1nc2cc3c(cc2s1)C1CNCC3C1.Cl (stereo not shown),183 to 184 °C
15,Cl.c1cnc2cc3c(cc2c1)C1CNCC3C1 (stereo not shown),260 °C (dec.)
16,Cc1nc2cc3c(cc2o1)C1CNCC3C1.Cl (stereo not shown),> 250 °C
17,Cc1nc2cc3c(cc2n1CC(C)C)C1CNCC3C1.Cl (stereo not shown),129 to 130 °C
18,Cl.O=C(Nc1cc2c(cc1O)C1CNCC2C1)c1ccccc1F (stereo not shown),125 to 130 °C
19,Cc1nc2cc3c(cc2n1C)C1CNCC3C1.Cl (stereo not shown),225 to 230 °C

# Next, values leading:
row,melting point,Structure (SMILES)
1,262 to 265 °C,Cl.c1ccc(-c2cccc3c2C2CNCC3C2)cc1 (stereo not shown)
2,269 to 271 °C,Cl.Fc1cccc2c1C1CNCC2C1 (stereo not shown)
3,189 to 192 °C,Cl.Nc1ccc2c(c1)C1CNCC2C1 (stereo not shown)
4,260 to 262 °C,Cl.Fc1ccc2c(c1)C1CNCC2C1 (stereo not shown)
5,275 to 277 °C,Cl.FC(F)(F)c1cccc2c1C1CNCC2C1 (stereo not shown)
6,268 to 273 °C,Cl.N#Cc1ccc2c(c1)C1CNCC2C1 (stereo not shown)
7,253 to 255 °C,Cl.Oc1cccc2c1C1CNCC2C1 (stereo not shown)
8,254 to 255 °C,Cc1ccc2c(c1)C1CNCC2C1.Cl (stereo not shown)
9,198 to 202 °C,CC(=O)c1ccc2c(c1)C1CNCC2C1.Cl (stereo not shown)

# Source: patent US7205300B2, “Aryl fused azapolycyclic compounds” (Pfizer Inc, priority 1997, dated 2007)
